From patent US20120202287A1, “Stem Cell Culture Methods” (priority 2009, published 2012) come the findings set out here.

One data set deals with SA121 hESCs. In words: General (monolayer) differentiation on matrigel in defined media, qRT-PCR of stem cell and differentiation markers after 14 days. It counts as cell-based, human. Also noted: key to NO EHNA EFFECT: X: NO EHNA EFFECT; key to Full EHNA effect: those which maintained at least 50% of the level of NANOG-expression in comparison to EHNA and those that inhibited the expression of PAX6 to 50% or less than the value untreated controls were considered to have an EHNA-like effect. The following applies: 10 uM, 14 days, qRT-PCR; NANOG at least 50% of EHNA level and PAX6 50% or less of untreated control. On the procedure: In order to ascertain the efficacy of the compounds of the present invention, each compound was tested to determine whether it can maintain the stem cell marker NANOG and/or block the differentiation marker PAX6 in the face of differentiating conditions in a manner similar to EHNA. Cells enzymatically passaged onto matrigel-coated dishes and grown for 2 weeks in defined media with or without (control) compound addition were analysed by qRT-PCR to determine the level of NANOG and PAX6 expression.
For general differentiation experiments cells were passaged with trypsin onto matrigel coated twelve-well dishes in the fully supportive media (see above). The media was then changed to defined media 24 h later and any experimental component was first added at this point. The media and experimental supplement were changed daily.
Cells were routinely harvested for qRT-PCR analysis 14 days after the first addition of the experimental compound.
Total RNA was extracted using QIAGEN RNeasy kits (Qiagen Inc, Valencia, Calif., http://www.qiagen.com) and DNaseI treatment was performed using Turbo DNA-Free (Ambion). The absence of genomic DNA was confirmed by quantitative PCR (qPCR) (see below) using glyceraldehyde-3-phosphate dehydrogenase (GAPDH) Taqman primers and probe (MWG). cDNA was synthesized with 2 μg total RNA in 20 μl using Superscript II according to manufacturers' instructions ((Carlsbad, Calif., http://www.Invitrogen.com)). For qPCR, cDNAs were diluted 1 in 60 and 5 μl used per sample in a 15 μl total reaction volume. Platinum pPCR supermix UDG with Rox (Carlsbad, Calif., http://www.Invitrogen.com) was used according to the manufacturer's instructions using an Applied Biosystems 7300 real time PCR system (Applied Biosystems, Warrington, UK, http://europe.appliedbiosystems.com). Each reaction contained 0.6 μM of each primer and Taqman probe (MWG). Biological and technical replicates were each performed in triplicate for each sample, standardised to the GAPDH housekeeping gene and relative expression values were calculated using the 7300 system SDS software (Applied Biosystems, Warrington, UK, http://europe.appliedbiosystems.com).
Cells were enzymatically passaged onto matrigel-coated dishes and grown for 2 weeks in defined media. After 14 days, qRT-PCR was utilised to analyse the expression of a variety of markers of pluripotency and differentiation. In the graphs in FIG. 9 the value 1 was set to the expression level of the gene in undifferentiated SA121 hESCs.
Cells were enzymatically passaged onto matrigel-coated dishes and grown for 2 weeks in defined media (1× confluent T25 tissue culture flask was passaged to 2×12 well dishes) with or without (control) compound addition. All compounds were added at 10 uM and each was performed in triplicate. Media and compounds were changed every 48 hours. After 14 days RNA was isolated and qRT-PCR was utilised to analyse the expression of NANOG and PAX6. The results are illustrated in FIGS. 13 to 17.
In the graphs in FIGS. 13, 14 15, 16 and 17 the value 1 was set relative to the expression level of the gene in the control (no compound) samples. […] This experiment allowed the effect of the EHNA-related compounds to be measured directly in comparison to EHNA. […] Those which had on effect, to these levels, on either PAX6 or NANOG were considered to have a partial-EHNA effect.
As for `CCCCCCC(C(C)O)n1cnc2c(SC)ncnc21` (stereo not drawn) [HWC25, erythro-3-[6-(methylthio)-9H-purin-9-yl]nonan-2-ol], the “Full EHNA effect” value was “X”. Still for that read-out and setting: next, `CCCCCC[C@H]([C@H](C)O)n1cnc2c(N)ncnc21` [HWC46, (2S,3R)-3-(6-amino-9H-purin-9-yl)nonan-2-ol]: “X”; `CCCCCCCCCn1cc2c(N)ncnc2n1.Cl` [HWC30, 2-nonyl-2H-pyrazolo[3,4-d]pyrimidin-4-amine hydrochloride]: “X”.

In the case of `CCCCCCCCCn1ncc2c(N)ncnc21.Cl` [HWC31, 1-nonyl-1H-pyrazolo[3,4-d]pyrimidin-4-amine hydrochloride], the “Full EHNA effect” value is “X”.

Still in this data set, the particulars now being: 10 uM, 14 days, qRT-PCR; neither NANOG nor PAX6 criterion met.
On to `CCCCC[C@H]([C@H](C)O)n1cnc2c(N)ncnc21` [HWC59, (2S,3R)-3-(6-amino-9H-purin-9-yl)octan-2-ol], for which the “NO EHNA EFFECT” value was “X”. On to `CCC[C@H]([C@H](C)O)n1cnc2c(N)ncnc21` [HWC60, (2S,3R)-3-(6-Amino-9H-purin-9-yl)hexan-2-ol], for which the “NO EHNA EFFECT” value was “X”. In the case of `CCCCCC[C@@H]([C@@H](C)O)n1cnc2c(OC)ncnc21.Cl` [HWC15, erythro-3-(6-methoxy-9H-purin-9-yl)nonan-2-ol hydrochloride], the “NO EHNA EFFECT” value is recorded as “X”. In the case of `CCCCCC[C@@H](O)[C@H](C)n1cnc2c(OC)ncnc21` [HWC51, (2S,3R)-2-(6-methoxy-9H-purin-9-yl)nonan-3-ol], the “NO EHNA EFFECT” value is on record as “X”.

With `CCC[C@H](O)[C@@H](C)n1cnc2c(N)ncnc21` [HWC61, (2R,3S)-2-(6-amino-9H-purin-9-yl)hexan-3-ol], the “NO EHNA EFFECT” value is on record as “X”.

Staying with this data set, now noted: 10 uM, 14 days, qRT-PCR; only PAX6 50% or less of untreated control.
`CCCCCC[C@@H]([C@@H](C)O)n1cnc2cnccc21` [HWC8, erythro-3-(1H-imidazo[4,5-c]pyridin-1-yl)nonan-2-ol]: the “PARTIAL EHNA EFFECT (PAX6)” value is given as “X (Those which had on effect, to these levels, on either PAX6 or NANOG were considered to have a partial-EHNA effect)”.

As to `CCCCCC[C@@H]([C@@H](C)O)n1cnc2c(N)ncnc21` [HWC52, (2R,3S)-3-(6-amino-9H-purin-9-yl)nonan-2-ol], the “PARTIAL EHNA EFFECT (PAX6)” value was “X (Those which had on effect, to these levels, on either PAX6 or NANOG were considered to have a partial-EHNA effect)”. On to `Nc1ncnc2nn(CCN3CCOCC3)cc12` [HWC29, 2-(2-morpholinoethyl)-2H-pyrazolo[3,4-d]pyrimidin-4-amine], for which the “PARTIAL EHNA EFFECT (PAX6)” value is on record as “X (Those which had on effect, to these levels, on either PAX6 or NANOG were considered to have a partial-EHNA effect)”.

In the case of `CCCCCC[C@@H](O)[C@H](C)n1cnc2c(N)ncnc21` [HWC50, (2S,3R)-2-(6-amino-9H-purin-9-yl)nonan-3-ol], the “PARTIAL EHNA EFFECT (PAX6)” value was “X (Those which had on effect, to these levels, on either PAX6 or NANOG were considered to have a partial-EHNA effect)”. Regarding `CCCCCCC(C(C)O)n1cnc2c(NN)ncnc21` (stereo not drawn) [HWC27, erythro-3-(6-hydrazinyl-9H-purin-9-yl)nonan-2-ol], the “PARTIAL EHNA EFFECT (PAX6)” value was “X (Those which had on effect, to these levels, on either PAX6 or NANOG were considered to have a partial-EHNA effect)”. For the molecule `COCCOCCn1cc2c(N)ncnc2n1` [HWC35, 2-[2-(2-methoxyethoxy)ethyl]-2H-pyrazolo[3,4-d]pyrimidin-4-amine], the “PARTIAL EHNA EFFECT (PAX6)” value was “X (Those which had on effect, to these levels, on either PAX6 or NANOG were considered to have a partial-EHNA effect)”. In the case of `CCCCCC[C@@H]([C@@H](C)O)n1nnc2c(N)ncnc21` [HWC26, erythro-3-(7-amino-3H-[1,2,3]triazolo[4,5-d]pyrimidin-3-yl)nonan-2-ol], the “PARTIAL EHNA EFFECT (PAX6)” value was “X (Those which had on effect, to these levels, on either PAX6 or NANOG were considered to have a partial-EHNA effect)”. For the molecule `CCCCCCC(C(C)O)n1cnc2c(NC)ncnc21` (stereo not drawn) [HWC16, erythro-3-[6-(methylamino)-9H-purin-9-yl]nonan-2-ol], the “PARTIAL EHNA EFFECT (PAX6)” value was “X (Those which had on effect, to these levels, on either PAX6 or NANOG were considered to have a partial-EHNA effect)”.

Staying with this data set, now noted: qRT-PCR, 14 days.
`CC(C)Cn1c(=O)n(C)c(=O)c2[nH]cnc21` [IBMX, 3-Isobutyl-1-methylxanthine, reference compound]: the “PAX6 expression in differentiating conditions” value was “nor did they inhibit PAX6 induction”. Consider `COc1ccc(Cc2nn3c([C@@H](CCCc4ccccc4)[C@@H](C)O)nc(C)c3c(=O)[nH]2)cc1OC` [BAY-60-7550, reference compound], for which the “PAX6 expression in differentiating conditions” value is “nor did they inhibit PAX6 induction”.

Staying with this data set, now noted: qRT-PCR, 14 days, FIG. 9a.
Regarding `CC(C)Cn1c(=O)n(C)c(=O)c2[nH]cnc21` [IBMX, 3-Isobutyl-1-methylxanthine, reference compound], the “stem cell marker expression (NANOG, ZFP42, POU5F1) in differentiating conditions” value is given as “Neither BAY nor IBMX maintained stem cell marker expression”.

Consider `COc1ccc(Cc2nn3c([C@@H](CCCc4ccccc4)[C@@H](C)O)nc(C)c3c(=O)[nH]2)cc1OC` [BAY-60-7550, reference compound], for which the “stem cell marker expression (NANOG, ZFP42, POU5F1) in differentiating conditions” value is reported as “Neither BAY nor IBMX maintained stem cell marker expression”.

Tested on in another data set: not listed separately
In words: Solubility in 5% DMSO-water.
Conditions: not given
It counts as physicochemical.
With `CCCCCCCCCCn1cc2c(N)ncnc2n1` [HWC-3, 2-decyl-2H-pyrazolo[3,4-d]pyrimidin-4-amine], the “solubility in 5% DMSO-water” value is listed as “poor solubility”.
